“Also recorded” adds a separate entry of the source. In the oligonucleotide strings, read from the 5' end, every base follows the letter of its sugar. An asterisk marks phosphorothioate; unmarked linkages are phosphodiester. Other units and linkages are bracketed, terminal groups are in braces. A string of capitals states the bases alone. d = 2'-deoxy (DNA)
Columns and labels:
Format in all cases: cell-based
[1] = system: cells; assay: Cytotoxicity (CCK-8 cell viability) of chemically modified miRNA triggers
Protocol: (§1) The miRNA triggers were assayed for cytotoxicity and apoptosis induction, using the CCK-8 (Cell Counting Kit-8) (Dojindo, Kumamoto, Japan) according to the manufacturer's instruction. Cells were incubated in 96-well plates (5×10^3 cells/well) at 37° C. for 24 hours under a 5% CO2 atmosphere, followed by transfection. Three days after transfection, the medium was removed. A 10-fold dilution of CCK-8 solution in DMEM was added to the cells which were then incubated at 37° C. for 2 hours. After incubation, absorbance was read at 450 nm on Tecan Infinite M200 pro microplate reader (Mnnedorf, Switzerland).
In addition, FPS HP and 2′-OMe HP, which were the most resistant to degradation in biological samples, were analyzed for cytotoxicity. In this regard, the HP in which the entire nucleotides of miRNA trigger (LP) were modified with PS (expressed as PS in Table 6 and FIG. 6), the linear probe in which the entire nucleotides of miRNA trigger (LP) were modified with 2′-O-Me (expressed as 2′O-me in Table 6 and FIG. 6), the control DNA LP (expressed as DNA in Table 6 and FIG. 6), or siRNA was transfected into cells which were then measured for cell viability using the method of Reference Example 9. The result is depicted in FIG. 6. […]

[2] = system: miR-155; assay: miR-155 expression after treatment with AML therapeutic agents; settings: FLT3-ITD mutated AML cell line (NOLM-14); IC50 dose, 37° C., 72 hours
Protocol: The FLT3-ITD mutated AML cell line (NOLM-14) was treated with an IC50 dose of cytarabine, azacitidine, decitabine, venetoclax, or gilteritinib, which is used as standard therapeutic agents for AML, at 37° C. for 72 hours, followed by measuring expression levels of miR-155.

[3] = system: MCF-7 breast cancer cells; assay: Cell viability / apoptosis in MCF-7; settings: single siRNA, final concentration 60 nM
Protocol: as §1
An siRNA targeting bcl-2, bcl-xL, or mcl-1 was transfected into MCF-7 breast cancer cells and PANC-1 pancreatic cancer cells. By using qRT-PCR, establishment was made of a condition under which the expression of each target gene is decreased by 80% or more (transfection was performed at a concentration of 60 nM with the aid of Lipofectamine). As a negative control, a Luc (Luciferase)-targeting siRNA (siLuc) was used. Under the same condition of decreasing the expression of each target gene by 80% or more, the cells transfected with the siRNAs were measured for apoptosis, and the results are depicted in FIGS. 14a and 14b.
Linear miRNA triggers that could bind to miR-141 or let7f and target bcl-xL or mcl-1 were prepared and transfected alone or in combination into the breast cancer cell line MCF-7 which was then measured for cell viability. Every nucleotide of the triggers and controls was chemically modified with 2′-OMe.
First, MCF-7 was measured for cell viability after treatment with siMCL-1, siBCL-xL, and siBCL-2 (FIG. 48). […] The final concentration of the siRNAs was 60 nM.
Next, examination was made of the apoptosis when two or more genes were regulated together. MCF-7 was measured for cell viability after treatment with siMCL-1+siBCL-xL, siMCL-1+siBCL-2, siBCL-xL+siBCL-2, and siMCL-1+siBCL-xL+siBCL-2 (FIG. 49).
Finally, experiments under all the conditions (individual and simultaneous regulation) were conducted simultaneously so as to compare effects thereof. […]

[4] = system: GFP mRNA; assay: GFP fluorescence intensity in GFP-expressing Hela-141 cells; settings: siGFP compared to siLuc, trigger 30 to 60 nM
Source text: A GFP fluorescent protein-expressing plasmid (used in Chen L L, DeCerbo J N, Carmichael G G. 2008. Alu element-mediated gene silencing. EMBO J 27: 1694-1705) was transfected into Hela-141 cells to prepare GFP-expressing Hela-141 cells. As stated in Reference Example 1, a linear miRNA trigger (LP; GFP_141_141), which can target GFP mRNA (=complementarily bind to GFP mRNA to regulate the expression of GFP) and complementarily bind to miR-141, and siRNAs which target GFP and Luc (Luciferase), respectively, were synthesized in Bioneer Inc. Sequences of the LP and siRNAs and types and positions of chemical modifications in each sequence are listed in Table 8, below.
Above all, siLuc and siGFP were transfected into the GFP-expressing Hela-141 cells which were then measured for fluorescence intensity on an ELISA reader. […] In addition, the linear miRNA trigger (GFP(1)_141_141) was transfected into the GFP-expressing Hela-141 cells which were then measured for fluorescence intensity. The result is depicted in FIG. 8. For the transfection, the GFP plasmid and GFP_141_141 were used at a concentration of 0.5 to 1 μg/ml and 30 to 60 nM, respectively.

[5] = system: Hela-141 cells; assay: Cell viability / apoptosis (CCK-8) in Hela-141 cells; settings: Hela-141 cells
Protocol: as §1
(§2) The linear miRNA triggers or siRNAs (siLuc and siMcl-1) prepared above were transfected into Hela, Hela-141, and Hela-200c cells which were then measured for cell viability. The results are depicted in FIG. 15.
(§3) The hairpin miRNA triggers prepared above were transfected into Hela and Hela-141 cells which were then assayed for apoptosis. As a control, the siRNA (siMcl-1; Table 14) which can repress the expression of mcl-1 was transfected to Hela and Hela-141 cells and measured for apoptotic activity.

[6] = system: Hela cells; assay: Cell viability / apoptosis (CCK-8) in Hela cells
Protocol: as §1, §2, §3

[7] = system: Hela-200c cells; assay: Cell viability / apoptosis (CCK-8) in Hela-200c cells
Protocol: as §1, §2

How did the “cell viability versus non-transfected negative control (NT)” value ([1]; CCK-8) turn out when “2′-O-Me: linear probe, entire nucleotides modified with 2′-O-Me; SEQ ID NO 38 (UCGAAGUACUCAGCGUAAGUUCGAAGUACUCAGCGUAAGUUCGAAGUACUCAGCGUAAGU; all 2'-O-methyl, backbone not given here)” was run?
Its value is “not significantly different in viability from the negative control”.

Which miR-155 expression [2] does the source give for `Nc1ncn([C@@H]2O[C@H](CO)[C@@H](O)[C@H]2O)c(=O)n1` [azacitidine] here?
The miR-155 expression was “did not repress miR-155 express”.

`Nc1ccn([C@@H]2O[C@H](CO)[C@@H](O)[C@@H]2O)c(=O)n1` [cytarabine] was tested. Which miR-155 expression [2] did it give?
The miR-155 expression was “did not repress miR-155 express”.

With “PS: miRNA trigger (LP), entire nucleotides modified with PS, random sequences; SEQ ID NO 37 (dT*dC*dG*dA*dA*dG*dT*dA*dC*dT*dC*dA*dG*dC*dG*dT*dA*dA*dG*dT*dT*dC*dG*dA*dA*dG*dT*dA*dC*dT*dC*dA*dG*dC*dG*dT*dA*dA*dG*dT*dT*dC*dG*dA*dA*dG*dT*dA*dC*dT*dC*dA*dG*dC*dG*dT*dA*dA*dG*dT)” as the molecule, how does the cell viability ([1]; transfected cells, CCK-8, random sequences) read?
Its cell viability is “less than 40%”.

With “siBcl-xL: siRNA targeting bcl-xL; SEQ ID NO 63 (UUGGUCCCUCAGUAUGGUC; listed as RNA, chemistry not given here)” as the molecule, how does the “apoptosis (cell viability)” value [3] read?
Its value is “apoptosis was detected”.

“siGFP: siRNA which targets GFP; SEQ ID NO 44 (UUAUGUUUCAGGUUCAGGG; RNA, backbone not given here) [reference compound]” was tested. Which GFP fluorescence intensity [4] did it give?
Its GFP fluorescence intensity is “significantly reduced fluorescence intensity”.

Which results are given for “siMcl-1: siRNA targeting mcl-1; SEQ ID NO 64 (AAAUUCGAUACUUCCUUCG; listed as RNA, chemistry not given here) [reference compound]”?
apoptosis (cell viability) [3]: apoptosis was detected; also recorded: greatest apoptosis; apoptosis / cell viability [5]: induced apoptosis; also recorded: apoptotic effect; apoptosis / cell viability [6]: induced apoptosis; also recorded: apoptotic effect; apoptosis / cell viability [7]: induced apoptosis

B1: GFP(1)_141_141: linear miRNA trigger targeting GFP mRNA and binding miR-141; SEQ ID NO 41 (nucleic acid)
chain: CCAUCUUUACCUCACAGUGUUACCAUCUUUACCUCACAGUGUUAUUAUGUUUCAGGUUCAGGGGGA
modifications: all 2'-O-methyl, backbone not given here
With B1 as the molecule, how does the GFP fluorescence intensity [4] read?
Its GFP fluorescence intensity is “reduced GFP fluorescence intensity in a dose-dependent manner”.
